# Data taken from publication PMC11271627, “Molecular dynamics-guided optimization of BGM0504 enhances dual-target agonism for combating diabetes and obesity” (Scientific Reports, 2024).
# Marks after values point to notes of the source that are not given here.
# Assays:
# Human GLP-1R = molecular target: T1, Human GLP-1R (Homo sapiens, UniProt P43220); experiment: cAMP accumulation assay, GLP-1R; type: cell-based
# T1 construct: expressed in transfected cells; host or cells: HEK293 cells
# Experimental: These cells were then resuspended in 5 mL of the assay buffer, and their concentration was determined using a Vi-Cell Counter. […] Samples were subsequently added to the assay plate along with ECHO555. […] A volume of 10 µL of the cell suspension was added to the assay plate, with a density of 1000 cells/well for GLP-1R testing and 2000 cells/well for GIPR testing. The assay plate was then incubated in a 23°C incubator for 30 minutes. A starting concentration of 800 nM was used to prepare the cAMP standard curve, followed by a 4-fold 10-point serial dilution. These serially diluted cAMP standards were added to the assay plate at a volume of 10 µL/well. Subsequently, 10 µL of the cAMP detection solution was added to the assay plate, and the plate was incubated at room temperature for 1 hour, shielded from direct light. […] For data analysis, each data point’s cAMP level (nM) was calculated using the established cAMP standard curve. The percentage activity for each data point was determined using the formula: % Activity = (cAMP level of testing sample - average cAMP level of low control) / ([…] cAMP level of high control - average cAMP level of […] control) × 100%. Additionally, the ‘log(agonist) vs. response – variable slope’ model in GraphPad Prism 5.0 was used to fit the dose-response curve of each sample and calculate the EC50 value.
# db/db mice = experiment: Blood glucose reducing effect in db/db mice model; type: in vivo; conditions: for Insulin in serum: 31 days, ELISA, three days after last dose, Mean±SD, n=11
# Experimental: In contrast, the db/db-ND group received only the drug vehicle via subcutaneous injection. Three parallel experimental groups were established to explore the dose-dependent characteristics of BGM0504 in db/db mice: a low-dose group (0.05 mg/kg), a standard dose group (0.15 mg/kg), and a high-dose group (0.5 mg/kg), each comprising 11 db/db mice. Subsequent administrations were conducted every 3 days following the initial administration, and the experiment spanned 31 days. […] To thoroughly investigate the dose dependence of BGM0504 in db/db mice, we established additional dose groups, including a low-dose group at 0.05 mg/kg and a high-dose group at 0.5 mg/kg. Each experimental group comprised 11 db/db mice. Following the initial administration, subsequent doses were administered every 3 days, spanning a total of 31 days. Throughout this study, we meticulously observed and analyzed a spectrum of parameters encompassing changes in body weight, food intake, non-fasting blood glucose post-initial administration. In this experimental endeavor, we engaged 55 male db/db mice of SPF grade, procured at 6–8 weeks, from Zhejiang Vital River Laboratory Animal Technology Co., Ltd. The animals were divided into groups based on body weight and fasting blood glucose levels. […] The groups included the db/db-ND group, the Tirzepatide-0.15 mg/kg group, the BGM0504-0.05 mg/kg group, the BGM0504-0.15 mg/kg group, and the BGM0504-0.5 mg/kg group, each comprising 11 mice. […] Non-fasting blood glucose levels were measured at 0, 1, 2, 3, 6, 24, 48, and 72 hours post-administration. Three days after the last dose, the mice were weighed. Subsequently, a portion of non-anticoagulated whole blood was collected from the orbital venous plexus under anesthesia. Blood samples were left at room temperature for 30 minutes, then centrifuged at 5000 rpm for 5 minutes. The serum was separated and frozen at -80°C for serum insulin content testing. Serum insulin levels were measured using the enzyme-linked immunosorbent assay (ELISA) method.
# T1 sequence (P43220 24-463): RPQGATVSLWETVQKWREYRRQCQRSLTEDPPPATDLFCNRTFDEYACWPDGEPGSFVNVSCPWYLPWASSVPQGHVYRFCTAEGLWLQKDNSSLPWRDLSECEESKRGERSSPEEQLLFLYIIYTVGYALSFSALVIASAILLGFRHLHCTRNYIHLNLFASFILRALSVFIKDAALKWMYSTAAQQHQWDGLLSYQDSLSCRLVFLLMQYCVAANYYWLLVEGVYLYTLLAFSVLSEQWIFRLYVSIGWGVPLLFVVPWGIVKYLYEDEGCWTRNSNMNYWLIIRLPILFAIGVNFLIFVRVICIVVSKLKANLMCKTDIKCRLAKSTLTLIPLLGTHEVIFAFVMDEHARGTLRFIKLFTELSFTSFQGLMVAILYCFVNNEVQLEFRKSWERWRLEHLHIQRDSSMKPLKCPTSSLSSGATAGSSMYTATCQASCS
smiles,measurement,setting,value
CC[C@H](C)[C@H](NC(=O)[C@H](CC(C)C)NC(=O)[C@H](Cc1c[nH]c2ccccc12)NC(=O)[C@H](CCC(N)=O)NC(=O)[C@@H](NC(=O)[C@H](Cc1ccccc1)NC(=O)[C@H](C)NC(=O)[C@H](CCCCN)NC(=O)[C@H](CCC(N)=O)NC(=O)[C@H](C)NC(=O)[C@@H](NC(=O)[C@H](CCCCN)NC(=O)[C@H](CC(=O)O)NC(=O)[C@H](CC(C)C)NC(=O)C(C)(C)NC(=O)[C@@H](NC(=O)[C@H](CO)NC(=O)[C@H](Cc1ccc(O)cc1)NC(=O)[C@H](CC(=O)O)NC(=O)[C@H](CO)NC(=O)[C@@H](NC(=O)[C@H](Cc1ccccc1)NC(=O)[C@@H](NC(=O)CNC(=O)[C@H](CCC(=O)O)NC(=O)C(C)(C)NC(=O)[C@@H](N)Cc1ccc(O)cc1)[C@@H](C)O)[C@@H](C)O)[C@@H](C)CC)[C@@H](C)CC)C(C)C)C(=O)N[C@@H](C)C(=O)NCC(=O)NCC(=O)N1CCC[C@H]1C(=O)N[C@@H](CO)C(=O)N[C@@H](CO)C(=O)NCC(=O)N[C@@H](C)C(=O)N1CCC[C@H]1C(=O)N1CCC[C@H]1C(=O)N1CCC[C@H]1C(=O)N[C@@H](CO)C(=O)N[C@@H](CCCCNC(=O)COCCOCCOCCNC(=O)COCCOCCOCCNC(=O)CC[C@H](NC(=O)CCCCCCCCCCCCCCCCCCC(=O)O)C(=O)O)C(N)=O [BGM0504],EC50,"Human GLP-1R; HEK293 cells with high expression of GLP-1 receptor, 1000 cells/well, 30 min 23°C, geometric mean ± SEM, n = 3",0.031 nM
same,Emax,"Human GLP-1R; HEK293 cells, relative to 10 nM GLP-1(7–37) high control, arithmetic mean ± SEM",92.7 ± 7.6%
same,Insulin in serum,db/db mice; 0.05 mg/kg s.c. every 3 days,37649.0±3597.0^a nIU/mL
same,Insulin in serum,db/db mice; 0.15 mg/kg s.c. every 3 days,30897.0±5634.0^a nIU/mL
same,Insulin in serum,db/db mice; 0.5 mg/kg s.c. every 3 days,32774.0±6290.0^a nIU/mL
same,body weight and food intake,db/db mice; early stages of administration,acute decline in body weight and food intake
same,"non-fasting blood glucose within 72 h after first administration, vs db/db-ND group","db/db mice; s.c., Tirzepatide 0.15 mg/kg, BGM0504 0.05, 0.15, 0.5 mg/kg, n = 11",significant blood glucose suppression
